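These data come from cells grown in 96-well plates and exposed to compound for 48 hours at five concentrations. At the GI50, growth is halved.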 Activity calls are given as the source filed them. No stated cut-off is given here; in the data, active = GI50 up to about 1.1 µM and inactive = higher.
Legend:
Experiment in all cases: growth of human tumour cells (NCI), 48 h
HCT-15 = system: HCT-15
RPMI-8226 = system: RPMI-8226
TK-10 = system: TK-10
SK-MEL-28 = system: SK-MEL-28
OVCAR-3 = system: OVCAR-3
HOP-92 = system: HOP-92
SF-295 = system: SF-295
OVCAR-8 = system: OVCAR-8
K562 = system: K562
CAKI-1 = system: CAKI-1
A549 = system: A549
HCC 2998 = system: HCC 2998
UO-31 = system: UO-31
U-251 = system: U-251
LOX IMVI = system: LOX IMVI
HL-60 = system: HL-60
MCF7 = system: MCF7
DU-145 = system: DU-145

SMILES	GI50 (HCT-15)	GI50 (RPMI-8226)	GI50 (TK-10)	GI50 (SK-MEL-28)	GI50 (OVCAR-3)	GI50 (HOP-92)	GI50 (SF-295)	GI50 (OVCAR-8)	GI50 (K562)	GI50 (CAKI-1)	GI50 (A549)	GI50 (HCC 2998)	GI50 (UO-31)	GI50 (U-251)	GI50 (LOX IMVI)	GI50 (HL-60)	GI50 (MCF7)	GI50 (DU-145)
CC(=O)OC1CCn2nnc(COC(=O)NC(C)C)c21 (stereo not given)	> 100 µM	> 100 µM (inactive)	> 100 µM (inactive)	> 100 µM (inactive)	> 100 µM (inactive)	> 100 µM (inactive)	> 100 µM (inactive)	> 100 µM (inactive)	> 100 µM (inactive)	> 100 µM (inactive)	> 100 µM (inactive)	> 100 µM (inactive)	> 100 µM (inactive)	> 100 µM (inactive)	–	–	–	–
C[C@H](C(=O)C12CC3CC(CC(C3)C1)C2)[C@H](O)c1ccccc1	–	36 µM (inactive)	36.1 µM (inactive)	17.6 µM (inactive)	22.4 µM (inactive)	21.9 µM (inactive)	31.9 µM (inactive)	33.5 µM (inactive)	39.4 µM (inactive)	36 µM (inactive)	40.7 µM (inactive)	–	29 µM (inactive)	–	17.5 µM (inactive)	23.1 µM (inactive)	–	–
COc1cc(/C=C2/Oc3c(OC)cccc3C2=O)ccc1O	24.3 µM	53.2 µM (inactive)	> 100 µM (inactive)	> 100 µM (inactive)	61.2 µM (inactive)	> 100 µM (inactive)	54 µM (inactive)	> 100 µM (inactive)	> 100 µM (inactive)	36.5 µM (inactive)	> 100 µM (inactive)	48.4 µM (inactive)	63 µM (inactive)	> 100 µM (inactive)	84.5 µM (inactive)	36.6 µM (inactive)	> 100 µM (inactive)	49.1 µM (inactive)
Cc1ccc(S(=O)(=O)Oc2nc3ccccc3nc2OS(=O)(=O)c2ccc(C)cc2)cc1	> 100 µM	40.9 µM (inactive)	> 100 µM (inactive)	28 µM (inactive)	> 100 µM (inactive)	–	> 100 µM (inactive)	> 100 µM (inactive)	32.4 µM (inactive)	8.39 µM (inactive)	> 100 µM (inactive)	> 100 µM (inactive)	> 100 µM (inactive)	> 100 µM (inactive)	> 100 µM (inactive)	32.3 µM (inactive)	> 100 µM (inactive)	> 100 µM (inactive)
O=C1/C=C(/c2ccc(O)cc2)[C@@H](OC2OC(CO)C(O)C(O)C2O)Cc2ccc(O)cc2O1.O=C1/C=C(/c2ccc(O)cc2)[C@H](O)Cc2ccc(O[C@@H]3OC(CO)C(O)C(O)C3O)cc2O1 (stereo not given in full)	> 100 µM	25.2 µM (inactive)	> 100 µM (inactive)	–	> 100 µM (inactive)	–	> 100 µM (inactive)	> 100 µM (inactive)	–	> 100 µM (inactive)	> 100 µM (inactive)	–	> 100 µM (inactive)	> 100 µM (inactive)	> 100 µM (inactive)	4.91 µM (inactive)	–	–
CCc1nc(Cl)c(Cl)c(Cl)n1	> 100 µM	> 100 µM (inactive)	> 100 µM (inactive)	> 100 µM (inactive)	> 100 µM (inactive)	–	> 100 µM (inactive)	> 100 µM (inactive)	> 100 µM (inactive)	–	> 100 µM (inactive)	> 100 µM (inactive)	> 100 µM (inactive)	> 100 µM (inactive)	> 100 µM (inactive)	> 100 µM (inactive)	> 100 µM (inactive)	–
CNC(=O)N1N[C@H](c2ccccc2)[C@@H]1c1ccccc1.OB(O)O	24.3 µM	–	40.4 µM (inactive)	18 µM (inactive)	17 µM (inactive)	26.3 µM (inactive)	17.3 µM (inactive)	14.5 µM (inactive)	22.6 µM (inactive)	32.7 µM (inactive)	28.4 µM (inactive)	31 µM (inactive)	22.5 µM (inactive)	20 µM (inactive)	18 µM (inactive)	23.7 µM (inactive)	24 µM (inactive)	–

Reference: ChEMBL document CHEMBL1201862, “PubChem BioAssay data set” (2004)
